In BindingDB's records for doi:10.1021/jm051104t (University of Minnesota, 2006):

Test: Cytotoxicity against HEK293 cells transfected with recombinant AOR by MTT assay

SMILES	IC50
CC1=CC2=C(C)C3(CC3)[C@@](C)(O)C(=O)C2=C1 [ACYLFULVENE]	95 nM
CC1=C(CO)C2=C(C)C3(CC3)[C@@](C)(O)C(=O)C2=C1 [IROFULVEN]	55 nM
CC1=C(CO)C2=C(C)C3(CC3)[C@](C)(O)C(=O)C2=C1	1420 nM
CC1=CC2=C(C)C3(CC3)[C@](C)(O)C(=O)C2=C1	5000 nM
